Measured values taken from article PMC7914897, “Cytotoxic Potential of a-Azepano- and 3-Amino-3,4-SeCo-Triterpenoids” (International Journal of Molecular Sciences, 2021).
Read-outs that look alike come from different tables or passages of the source.

Tests used:
[1] = test system: panel of approximately 60 cancer cell lines; design: method as in earlier work; settings: standard drugs; read-out: GI50 MG_MID60; cited from earlier work
[2] = test system: A549/ATCC (NSC lung cancer); design: method as in earlier work; settings: cited from earlier work
[3] = test system: MDA-MB-468 (Breast cancer); design: method as in earlier work; settings: cited from earlier work
SW-620 (Colon cancer) = test system: SW-620 (Colon cancer); design: method as in earlier work; settings: cited from earlier work
SR (Leukemia) = test system: SR (Leukemia); design: method as in earlier work; settings: cited from earlier work
SN12C (Renal cancer) = test system: SN12C (Renal cancer); design: method as in earlier work; settings: cited from earlier work
Leukemia subpanel = test system: Leukemia subpanel; design: method as in earlier work; settings: standard drugs, read-out: GI50 MG_MID; cited from earlier work
T-47D (Breast cancer) = test system: T-47D (Breast cancer); design: method as in earlier work; settings: cited from earlier work
RXF 393 (Renal cancer) = test system: RXF 393 (Renal cancer); design: method as in earlier work; settings: cited from earlier work
U251 (CNS cancer) = test system: U251 (CNS cancer); design: method as in earlier work; settings: cited from earlier work
[4] = test system: NCI-H23 (NSC lung cancer); design: method as in earlier work; settings: cited from earlier work
OVCAR-8 (Ovarian cancer) = test system: OVCAR-8 (Ovarian cancer); design: method as in earlier work; settings: cited from earlier work
RPMI-8226 (Leukemia) = test system: RPMI-8226 (Leukemia); design: method as in earlier work; settings: cited from earlier work
SNB-75 (CNS cancer) = test system: SNB-75 (CNS cancer); design: method as in earlier work; settings: cited from earlier work
HOP-92 (NSC lung cancer) = test system: HOP-92 (NSC lung cancer); design: method as in earlier work; settings: cited from earlier work
SK-MEL-5 (Melanoma) = test system: SK-MEL-5 (Melanoma); design: method as in earlier work; settings: cited from earlier work
SF-268 (CNS cancer) = test system: SF-268 (CNS cancer); design: method as in earlier work; settings: cited from earlier work
CCRF-CEM (Leukemia) = test system: CCRF-CEM (Leukemia); design: method as in earlier work; settings: cited from earlier work
EKVX (NSC lung cancer) = test system: EKVX (NSC lung cancer); design: method as in earlier work; settings: cited from earlier work
LOX IMVI (Melanoma) = test system: LOX IMVI (Melanoma); design: method as in earlier work; settings: cited from earlier work
CNS cancer subpanel = test system: CNS cancer subpanel; design: method as in earlier work; settings: standard drugs, read-out: GI50 MG_MID; cited from earlier work
[5] = test system: NCI-H460 (NSC lung cancer); design: method as in earlier work; settings: cited from earlier work
[6] = test system: NCI-H226 (NSC lung cancer); design: method as in earlier work; settings: cited from earlier work
HOP-62 (NSC lung cancer) = test system: HOP-62 (NSC lung cancer); design: method as in earlier work; settings: cited from earlier work
A498 (Renal cancer) = test system: A498 (Renal cancer); design: method as in earlier work; settings: cited from earlier work
HCT-116 (Colon cancer) = test system: HCT-116 (Colon cancer); design: method as in earlier work; settings: cited from earlier work
[7] = test system: NCI-H522 (NSC lung cancer); design: method as in earlier work; settings: cited from earlier work
SF-295 (CNS cancer) = test system: SF-295 (CNS cancer); design: method as in earlier work; settings: cited from earlier work
MOLT-4 (Leukemia) = test system: MOLT-4 (Leukemia); design: method as in earlier work; settings: cited from earlier work
SNB-19 (CNS cancer) = test system: SNB-19 (CNS cancer); design: method as in earlier work; settings: cited from earlier work
ACHN (Renal cancer) = test system: ACHN (Renal cancer); design: method as in earlier work; settings: cited from earlier work
MCF7 (Breast cancer) = test system: MCF7 (Breast cancer); design: method as in earlier work; settings: cited from earlier work
[8] = test system: MDA-MB-31/ATCC (Breast cancer); design: method as in earlier work; settings: cited from earlier work
[9] = test system: NIH 3T3 (non-malignant mouse fibroblasts); experiment: SRB cytotoxicity assay, 72 h; format: cell-based; settings: Mus musculus, NIH3T3; NIH 3T3, 72 h, cut-off 30 µM; read-out: EC50
Description: (§1) The cytotoxicity of compounds 1–20 was evaluated by means of a colorimetric sulforhodamine B (SRB) assay. For all compounds, the EC50 values were determined for the human tumor cell lines A375 (malignant melanoma), HT29 (colorectal carcinoma), MCF-7 (breast carcinoma), A2780 (ovarian carcinoma), FaDu (hypopharyngeal carcinoma), and NIH 3T3 (non-malignant mouse fibroblasts).
(§2) In short, exponentially growing cells were seeded into 96-well plates on day 0 at the appropriate cell densities to prevent confluence of the cells during the period of experiment. After 24 h, the cells were treated with serial dilutions of the compounds (0–30 µM) for 72 h. The final concentration of DMSO never exceeded 0.5%, which was non-toxic to the cells. After a 72 h treatment, the supernatant medium from the 96-well plates was discarded, and the cells were fixed with 10% TCA. For a thorough fixation, the plates were allowed to rest at 4 °C. After fixation, the cells were washed in a strip washer. The washing was done four times with water using alternate dispensing and aspiration procedures. The plates were then dyed with 100 µL of 0.4% SRB for about 20 min. After dying, the plates were washed with 1% acetic acid to remove the excess of the dye and allowed to air-dry overnight. Tris base solution (200 µL, 10 mM) was added to each well and absorbance was measured at λ = 570 nm (using a 96 well plate reader, Tecan Spectra, Crailsheim, Germany). The percentages of surviving cells relative to untreated controls were determined.

[10] = test system: FaDu (hypopharyngeal carcinoma); experiment: SRB cytotoxicity assay, 72 h; format: cell-based, human; settings: Homo sapiens, cut-off 30 µM, read-out: EC50
Description: as §1, §2

[11] = test system: HT29 (colorectal carcinoma); experiment: SRB cytotoxicity assay, 72 h; format: cell-based, human; settings: Homo sapiens, HT-29; HT29, 72 h, cut-off 30 µM; read-out: EC50
Description: as §1, §2

MCF-7 (breast carcinoma) = experiment: SRB cytotoxicity assay, 72 h; format: cell-based, human; settings: Homo sapiens, MCF7; MCF-7, 72 h, cut-off 30 µM; read-out: EC50
Description: as §1, §2

[12] = test system: A2780 (ovarian carcinoma); experiment: SRB cytotoxicity assay, 72 h; format: cell-based, human; settings: Homo sapiens; A2780, 72 h, cut-off 30 µM; read-out: EC50
Description: as §1, §2

[13] = test system: A375 (malignant melanoma); experiment: SRB cytotoxicity assay, 72 h; format: cell-based, human; settings: Homo sapiens, A-375, 72 h, A375, 72 h, cut-off 30 µM; read-out: EC50
Description: as §1, §2

MDA-MB-435 (Melanoma) = test system: MDA-MB-435 (Melanoma); design: method as in earlier work; settings: cited from earlier work
MALME-3M (Melanoma) = test system: MALME-3M (Melanoma); design: method as in earlier work; settings: cited from earlier work
HCC-2998 (Colon cancer) = test system: HCC-2998 (Colon cancer); design: method as in earlier work; settings: cited from earlier work
SF-539 (CNS cancer) = test system: SF-539 (CNS cancer); design: method as in earlier work; settings: cited from earlier work
OVCAR-3 (Ovarian cancer) = test system: OVCAR-3 (Ovarian cancer); design: method as in earlier work; settings: cited from earlier work
CAKI-1 (Renal cancer) [14] = test system: CAKI-1 (Renal cancer); design: method as in earlier work; settings: cited from earlier work
[15] = test system: panel of approximately 60 cancer cell lines; experiment: NCI-60 screen (SRB, 48 h), full panel; settings: for activity at 10 µM: Homo sapiens, 48 h
CAKI-1 (Renal cancer) [16] = experiment: NCI-60 screen (SRB, 48 h); settings: CAKI-1, 1 dose 10 µM

For `COc1cccc2c1C(=O)c1c(O)c3c(c(O)c1C2=O)C[C@@](O)(C(=O)CO)C[C@@H]3O[C@H]1C[C@H](N)[C@H](O)[C@H](C)O1` [DRB, doxorubicin], the GI50 [1] is listed as 0.38 µM, the GI50 [2] is listed as 0.06 µM and the GI50 [3] is listed as 0.05 µM. For the same compound, the GI50 (SW-620 (Colon cancer)) was 0.09 µM, the GI50 (SR (Leukemia)) was 0.03 µM and the GI50 (SN12C (Renal cancer)) was 0.07 µM. The GI50 (Leukemia subpanel) was 0.08 µM, the GI50 (T-47D (Breast cancer)) was 0.06 µM and the GI50 (RXF 393 (Renal cancer)) was 0.1 µM. The GI50 (U251 (CNS cancer)) was 0.04 µM, the GI50 [4] was 0.15 µM and the GI50 (OVCAR-8 (Ovarian cancer)) was 0.1 µM. For the same compound, the GI50 (RPMI-8226 (Leukemia)) was 0.08 µM, the GI50 (SNB-75 (CNS cancer)) was 0.07 µM and the GI50 (HOP-92 (NSC lung cancer)) was 0.1 µM. For the same compound, the GI50 (SK-MEL-5 (Melanoma)) was 0.08 µM, the GI50 (SF-268 (CNS cancer)) was 0.1 µM and the GI50 (CCRF-CEM (Leukemia)) was 0.08 µM. The GI50 (EKVX (NSC lung cancer)) was 0.41 µM, the GI50 (LOX IMVI (Melanoma)) was 0.07 µM and the GI50 (CNS cancer subpanel) was 0.08 µM. For the same compound, the GI50 [5] was 0.02 µM, the GI50 [6] was 0.05 µM and the GI50 (HOP-62 (NSC lung cancer)) was 0.07 µM. The GI50 (A498 (Renal cancer)) was 0.1 µM, the GI50 (HCT-116 (Colon cancer)) was 0.08 µM and the GI50 [7] was 0.03 µM. For the same compound, the GI50 (SF-295 (CNS cancer)) was 0.1 µM, the GI50 (MOLT-4 (Leukemia)) was 0.03 µM and the GI50 (SNB-19 (CNS cancer)) was 0.04 µM. For the same compound, the GI50 (ACHN (Renal cancer)) was 0.08 µM, the GI50 (MCF7 (Breast cancer)) was 0.03 µM and the GI50 [8] was 0.51 µM.
Work on `C=C(C)[C@@H]1CC[C@]2(C)[C@H](CC=C3[C@@H]4CC(C)(C)CC[C@]4(CO)CC[C@]32C)[C@@]1(C)CCCN` [Compound 18] yielded an EC50 [9] of 4.02 ± 0.7 µM, an EC50 [10] of 3.34 ± 0.3 µM and an EC50 [11] of 1.72 ± 0.2 µM. The EC50 (MCF-7 (breast carcinoma)) was 2.65 ± 0.2 µM, the EC50 [12] was 4 ± 0.2 µM and the EC50 [13] was 3.38 ± 0.2 µM.
For `O=c1[nH]cc(F)c(=O)[nH]1` [Compound 5-FU, 5-fluorouracil], the GI50 [1] is given as 6.97 µM, the GI50 [4] is given as 0.33 µM and the GI50 (RPMI-8226 (Leukemia)) is given as 0.04 µM. For the same compound, the GI50 (SNB-75 (CNS cancer)) was 78.7 µM, the GI50 (HOP-92 (NSC lung cancer)) was 77.9 µM and the GI50 (MDA-MB-435 (Melanoma)) was 0.07 µM. For the same compound, the GI50 (MALME-3M (Melanoma)) was 0.05 µM, the GI50 (HCC-2998 (Colon cancer)) was 0.05 µM and the GI50 [5] was 0.05 µM. For the same compound, the GI50 [6] was 54.7 µM, the GI50 (HOP-62 (NSC lung cancer)) was 0.39 µM and the GI50 (SF-539 (CNS cancer)) was 0.06 µM. The GI50 [7] was 7.27 µM, the GI50 (OVCAR-3 (Ovarian cancer)) was 0.01 µM and the GI50 (MCF7 (Breast cancer)) was 0.07 µM. For the same compound, the GI50 (CAKI-1 (Renal cancer) [14]) was 0.07 µM and the GI50 [8] was 6.6 µM.
With `CC1(C)NCCC[C@]2(C)[C@H]3CC(=O)[C@H]4[C@@H]5C[C@@](C)(CO)CC[C@]5(C)CC[C@@]4(C)[C@]3(C)CC[C@@H]12` [Compound 17] the “Positive Cytostatic Effect (cell lines with percent growth 0 to 50 / total)” value ([15]; 1 dose 10 µM) was 0/59, the “Positive Cytotoxic Effect (cell lines with percent growth < 0 / total)” value ([15]; 1 dose 10 µM) was 0/59 and the “number of cancer cell lines the compound was active against” value ([15]; 1 dose 10 µM) was “complete loss of cytotoxic activity”. For the same compound, the activity at 10 µM ([15]; read-out: Mean Growth, %) was 95.5%, the activity at 10 µM ([15]; read-out: Range of Growth, %) was 51.6 to 118% and the “Growth % of the Most Sensitive Cell Lines” value (CAKI-1 (Renal cancer) [16]) was 51.57%. It also gave an EC50 [9] of 9.87 ± 1.3 µM, an EC50 [10] of 6.36 ± 1.8 µM and an EC50 [11] of 5.01 ± 0.8 µM. For the same compound, the EC50 (MCF-7 (breast carcinoma)) was 5.55 ± 0.6 µM, the EC50 [12] was 9.19 ± 0.5 µM and the EC50 [13] was 6.35 ± 0.5 µM.
